Reference: PubChem BioAssay (NCI)
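48-hour exposure; five concentrations; linearly interpolated endpoints. At the TGI there is no net growth.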

Tests used:
Assay in all cases: DTP human tumour cell line panel, 48 h
A549 NSCLC = test system: A549 NSCLC
ACHN renal = test system: ACHN renal
CCRF-CEM leukemia = test system: CCRF-CEM leukemia
COLO 205 colon = test system: COLO 205 colon
DLD-1 colon = test system: DLD-1 colon
HCC-2998 colon = test system: HCC-2998 colon
HCT-116 colon = test system: HCT-116 colon
HL-60(TB) leukemia = test system: HL-60(TB) leukemia
HOP-62 NSCLC = test system: HOP-62 NSCLC
HOP-92 NSCLC = test system: HOP-92 NSCLC
HT29 colon = test system: HT29 colon
IGROV1 ovarian = test system: IGROV1 ovarian
K-562 leukemia = test system: K-562 leukemia
KM12 colon = test system: KM12 colon
LXFL 529 NSCLC = test system: LXFL 529 NSCLC
M19-MEL melanoma = test system: M19-MEL melanoma
MOLT-4 leukemia = test system: MOLT-4 leukemia
NCI-H226 lung = test system: NCI-H226 lung
NCI-H23 lung = test system: NCI-H23 lung
NCI-H460 lung = test system: NCI-H460 lung
NCI-H522 lung = test system: NCI-H522 lung
OVCAR-3 ovarian = test system: OVCAR-3 ovarian
OVCAR-5 ovarian = test system: OVCAR-5 ovarian
OVCAR-8 ovarian = test system: OVCAR-8 ovarian
RPMI-8226 leukemia = test system: RPMI-8226 leukemia
SF-268 CNS = test system: SF-268 CNS
SF-295 CNS = test system: SF-295 CNS
SF-539 CNS = test system: SF-539 CNS
SK-MEL-28 melanoma = test system: SK-MEL-28 melanoma
SK-MEL-5 melanoma = test system: SK-MEL-5 melanoma
SK-OV-3 ovarian = test system: SK-OV-3 ovarian
SNB-19 CNS = test system: SNB-19 CNS
SNB-75 CNS = test system: SNB-75 CNS
SR leukemia = test system: SR leukemia
SW-620 colon = test system: SW-620 colon
TK-10 renal = test system: TK-10 renal
U251 CNS = test system: U251 CNS
UACC-257 melanoma = test system: UACC-257 melanoma
UACC-62 melanoma = test system: UACC-62 melanoma
UO-31 renal = test system: UO-31 renal
786-0 renal = test system: 786-0 renal
A498 renal = test system: A498 renal
CAKI-1 renal = test system: CAKI-1 renal
DMS 114 small cell lung = test system: DMS 114 small cell lung
DMS 273 small cell lung = test system: DMS 273 small cell lung
EKVX NSCLC = test system: EKVX NSCLC
HCT-15 colon = test system: HCT-15 colon
LOX IMVI melanoma = test system: LOX IMVI melanoma
M14 melanoma = test system: M14 melanoma
MALME-3M melanoma = test system: MALME-3M melanoma
OVCAR-4 ovarian = test system: OVCAR-4 ovarian
RXF 393 renal = test system: RXF 393 renal
RXF-631 renal = test system: RXF-631 renal
SK-MEL-2 melanoma = test system: SK-MEL-2 melanoma
SN12C renal = test system: SN12C renal
SNB-78 CNS = test system: SNB-78 CNS
XF 498 CNS = test system: XF 498 CNS

In the case of COc1ccc(/C=N/n2cnc3c(sc(=S)n3-c3ccccc3)c2=O)cc1, the TGI (A549 NSCLC) is reported as greater than 100 µM, the TGI (ACHN renal) is reported as greater than 100 µM and the TGI (CCRF-CEM leukemia) is reported as 57.8 µM. For the same compound, the TGI (COLO 205 colon) was greater than 100 µM, the TGI (DLD-1 colon) was greater than 100 µM and the TGI (HCC-2998 colon) was greater than 100 µM. The TGI (HCT-116 colon) was greater than 100 µM, the TGI (HL-60(TB) leukemia) was 37.9 µM and the TGI (HOP-62 NSCLC) was 37.3 µM. It also gave a TGI (HOP-92 NSCLC) of 29.6 µM, a TGI (HT29 colon) greater than 100 µM and a TGI (IGROV1 ovarian) greater than 100 µM. It also gave a TGI (K-562 leukemia) of 48.8 µM, a TGI (KM12 colon) greater than 100 µM and a TGI (LXFL 529 NSCLC) of 48.8 µM. It also gave a TGI (M19-MEL melanoma) greater than 100 µM, a TGI (MOLT-4 leukemia) of 90.9 µM and a TGI (NCI-H226 lung) of 54.4 µM. The TGI (NCI-H23 lung) was 87.3 µM, the TGI (NCI-H460 lung) was greater than 100 µM and the TGI (NCI-H522 lung) was 30.1 µM. For the same compound, the TGI (OVCAR-3 ovarian) was 38.1 µM, the TGI (OVCAR-5 ovarian) was greater than 100 µM and the TGI (OVCAR-8 ovarian) was greater than 100 µM. It also gave a TGI (RPMI-8226 leukemia) of 58.8 µM, a TGI (SF-268 CNS) of 38.8 µM and a TGI (SF-295 CNS) of 31.5 µM. For the same compound, the TGI (SF-539 CNS) was 28.5 µM, the TGI (SK-MEL-28 melanoma) was 38.6 µM and the TGI (SK-MEL-5 melanoma) was greater than 100 µM. The TGI (SK-OV-3 ovarian) was 58.6 µM, the TGI (SNB-19 CNS) was 77.5 µM and the TGI (SNB-75 CNS) was 7.87 µM. For the same compound, the TGI (SR leukemia) was greater than 100 µM, the TGI (SW-620 colon) was greater than 100 µM and the TGI (TK-10 renal) was 65.4 µM. For the same compound, the TGI (U251 CNS) was greater than 100 µM, the TGI (UACC-257 melanoma) was greater than 100 µM and the TGI (UACC-62 melanoma) was 49.8 µM. For the same compound, the TGI (UO-31 renal) was greater than 100 µM.
O=C1c2ccc(O)cc2C(=O)c2ccc(O)cc21 gave a TGI (786-0 renal) greater than 100 µM, a TGI (A498 renal) greater than 100 µM and a TGI (A549 NSCLC) greater than 100 µM. It also gave a TGI (ACHN renal) greater than 100 µM, a TGI (CAKI-1 renal) greater than 100 µM and a TGI (CCRF-CEM leukemia) greater than 100 µM. The TGI (COLO 205 colon) was greater than 100 µM, the TGI (DLD-1 colon) was greater than 100 µM and the TGI (DMS 114 small cell lung) was greater than 100 µM. It also gave a TGI (DMS 273 small cell lung) greater than 100 µM, a TGI (EKVX NSCLC) greater than 100 µM and a TGI (HCC-2998 colon) greater than 100 µM. For the same compound, the TGI (HCT-116 colon) was greater than 100 µM, the TGI (HCT-15 colon) was greater than 100 µM and the TGI (HL-60(TB) leukemia) was greater than 100 µM. The TGI (HOP-62 NSCLC) was greater than 100 µM, the TGI (HOP-92 NSCLC) was greater than 100 µM and the TGI (HT29 colon) was greater than 100 µM. It also gave a TGI (IGROV1 ovarian) greater than 100 µM, a TGI (K-562 leukemia) greater than 100 µM and a TGI (KM12 colon) greater than 100 µM. It also gave a TGI (LOX IMVI melanoma) greater than 100 µM, a TGI (LXFL 529 NSCLC) greater than 100 µM and a TGI (M14 melanoma) greater than 100 µM. The TGI (M19-MEL melanoma) was greater than 100 µM, the TGI (MALME-3M melanoma) was greater than 100 µM and the TGI (MOLT-4 leukemia) was greater than 100 µM. For the same compound, the TGI (NCI-H23 lung) was greater than 100 µM, the TGI (NCI-H460 lung) was greater than 100 µM and the TGI (NCI-H522 lung) was greater than 100 µM. For the same compound, the TGI (OVCAR-3 ovarian) was greater than 100 µM, the TGI (OVCAR-4 ovarian) was greater than 100 µM and the TGI (OVCAR-5 ovarian) was greater than 100 µM. For the same compound, the TGI (OVCAR-8 ovarian) was greater than 100 µM, the TGI (RPMI-8226 leukemia) was greater than 100 µM and the TGI (RXF 393 renal) was 91.8 µM. The TGI (RXF-631 renal) was greater than 100 µM, the TGI (SF-268 CNS) was greater than 100 µM and the TGI (SF-295 CNS) was greater than 100 µM. For the same compound, the TGI (SF-539 CNS) was greater than 100 µM, the TGI (SK-MEL-2 melanoma) was greater than 100 µM and the TGI (SK-MEL-28 melanoma) was greater than 100 µM. It also gave a TGI (SK-MEL-5 melanoma) greater than 100 µM, a TGI (SK-OV-3 ovarian) of 84.8 µM and a TGI (SN12C renal) greater than 100 µM. It also gave a TGI (SNB-19 CNS) greater than 100 µM, a TGI (SNB-75 CNS) of 81.5 µM and a TGI (SNB-78 CNS) greater than 100 µM. It also gave a TGI (SW-620 colon) greater than 100 µM, a TGI (TK-10 renal) greater than 100 µM and a TGI (U251 CNS) greater than 100 µM. It also gave a TGI (UACC-257 melanoma) greater than 100 µM, a TGI (UACC-62 melanoma) greater than 100 µM and a TGI (UO-31 renal) of 73.2 µM. For the same compound, the TGI (XF 498 CNS) was greater than 100 µM.
